Laboratory results: patent publication US5036059A, “1,4-Dihydropyridine-3-carboxylate derivatives” (Nippon Shinyaku Company, Limited, priority 1984, dated 1991)
Where a name gives a salt, the structure may show the parent alone.

Assays:
[1] = test system: spontaneously hypertensive rats; experiment: Hypotensive action in spontaneously hypertensive rats, systolic arterial blood pressure by tail plethysmography, oral; type: in vivo
Description: (§1) Hypotensive action of diltiazem (which is a known hypotensive drug) measured by the same method at the doses of 3, 10 and 30 mg/kg were 0, 11.2 and 33.0%, respectively. Hypotensive action of the compound of Example 4 which is one of the most representative compounds of this invention was tested using spontaneously hypertensive rats and was compared with those of Nifedipine and Diltiazem hydrochloride. The method applied was that the drugs were orally given to the rats of which systolic arterial blood pressure were higher than 180 mmHg when it was measured plethysmographically using tail arteries. (Table 3)
Doses in mg/kg (p.o.) are as follows: *0.3 (1.0); **1.0 (3.0); ***30.

[2] = test system: rats (with normal blood pressure); experiment: Hypotensive action, mean blood pressure of femoral artery in unanesthetized normotensive rats, oral; type: in vivo; settings: Rattus norvegicus, read-out: % Decreases in Mean Blood Pressure [at peak effect]
Description: Blood pressure of femoral artery of rats (with normal blood pressure) under unanesthetized condition was measured directly using a pressure tranducer.
The present invention compounds were given orally at doses of 1, 3 and 10 mg/kg, and changes in blood pressure were continuously recorded. Percent decreases of mean blood pressure at the peak effect were calculated. The maximum changes in mean blood pressure (%) were shown as "hypotensive action" (Table 2).
as §1

[3] = 0.5 hr after administration, 1.0 mg/kg p.o.
[4] = 1 hr after administration, 1.0 mg/kg p.o.
[5] = 2 hr after administration, 1.0 mg/kg p.o.
[6] = 3 hr after administration, 1.0 mg/kg p.o.
[7] = 5 hr after administration, 1.0 mg/kg p.o.
[8] = 8 hr after administration, 1.0 mg/kg p.o.
[9] = 12 hr after administration, 1.0 mg/kg p.o.
[10] = before administration, 1.0 mg/kg p.o.

Compound: COC(=O)C1=C(C)NC(C)=C(C(=O)OC)C1c1ccccc1[N+](=O)[O-] [Nifedipine, dimethyl 2,6-dimethyl-4-(2-nitrophenyl)-1,4-dihydropyridine-3,5-dicarboxylate]
- systolic arterial blood pressure [1, 3]: 139.3 ± 6.9
- systolic arterial blood pressure ([1]; 0.5 hr after administration, 3.0 mg/kg p.o.): 112.8 ± 6.0
- systolic arterial blood pressure [1, 4]: 161.3 ± 4.1
- systolic arterial blood pressure ([1]; 1 hr after administration, 3.0 mg/kg p.o.): 125.8 ± 4.4
- systolic arterial blood pressure [1, 5]: 183.5 ± 10.0
- systolic arterial blood pressure ([1]; 2 hr after administration, 3.0 mg/kg p.o.): 148.7 ± 9.9
- systolic arterial blood pressure [1, 6]: 188.3 ± 5.8
- systolic arterial blood pressure ([1]; 3 hr after administration, 3.0 mg/kg p.o.): 176.8 ± 2.6
- systolic arterial blood pressure [1, 7]: 187.2 ± 5.3
- systolic arterial blood pressure ([1]; 5 hr after administration, 3.0 mg/kg p.o.): 183.8 ± 6.0
- systolic arterial blood pressure [1, 8]: 190.9 ± 4.8
- systolic arterial blood pressure ([1]; 8 hr after administration, 3.0 mg/kg p.o.): 188.5 ± 2.9
- systolic arterial blood pressure [1, 9]: 190.3 ± 5.5
- systolic arterial blood pressure ([1]; 12 hr after administration, 3.0 mg/kg p.o.): 190.0 ± 7.0
- systolic arterial blood pressure [1, 10]: 194.8 ± 2.1
- systolic arterial blood pressure ([1]; before administration, 3.0 mg/kg p.o.): 189.0 ± 5.1

Compound: COC(=O)C1=C(C)NC(C)=C(P2(=O)OCCCO2)C1c1ccccc1[N+](=O)[O-] (stereo not drawn) [Example 4, Methyl 2,6-dimethyl-4-(2-nitrophenyl)-5-(2-oxo-1,3,2-dioxaphosphorinan-2-yl)-1,4-dihydropyridine-3-carboxylate]
- inhibition in vivo at 1 mg/kg ([2]; 1 mg/kg oral): 42.6%
- inhibition in vivo at 3 mg/kg ([2]; 3 mg/kg oral): 39%
- inhibition in vivo at 10 mg/kg ([2]; 10 mg/kg oral): 41.9%
- systolic arterial blood pressure ([1]; 0.5 hr after administration, 0.3 mg/kg p.o.): 126.0 ± 3.9
- systolic arterial blood pressure [1, 3]: 87.7 ± 4.9
- systolic arterial blood pressure ([1]; 1 hr after administration, 0.3 mg/kg p.o.): 124.0 ± 3.3
- systolic arterial blood pressure [1, 4]: 90.2 ± 6.3
- systolic arterial blood pressure ([1]; 2 hr after administration, 0.3 mg/kg p.o.): 134.2 ± 4.3
- systolic arterial blood pressure [1, 5]: 103.2 ± 7.3
- systolic arterial blood pressure ([1]; 3 hr after administration, 0.3 mg/kg p.o.): 152.5 ± 4.0
- systolic arterial blood pressure [1, 6]: 133.3 ± 5.3
- systolic arterial blood pressure ([1]; 5 hr after administration, 0.3 mg/kg p.o.): 156.8 ± 8.3
- systolic arterial blood pressure [1, 7]: 150.7 ± 7.7
- systolic arterial blood pressure ([1]; 8 hr after administration, 0.3 mg/kg p.o.): 158.3 ± 7.2
- systolic arterial blood pressure [1, 8]: 152.8 ± 6.5
- systolic arterial blood pressure ([1]; 12 hr after administration, 0.3 mg/kg p.o.): 170.7 ± 5.4
- systolic arterial blood pressure [1, 9]: 165.3 ± 6.1
- systolic arterial blood pressure ([1]; 24 hr after administration, 0.3 mg/kg p.o.): 195.3 ± 5.9
- systolic arterial blood pressure ([1]; 24 hr after administration, 1.0 mg/kg p.o.): 187.7 ± 7.5
- systolic arterial blood pressure ([1]; before administration, 0.3 mg/kg p.o.): 185.2 ± 5.4
- systolic arterial blood pressure [1, 10]: 193.0 ± 6.5

Compound: COc1ccc([C@@H]2Sc3ccccc3N(CCN(C)C)C(=O)[C@@H]2OC(C)=O)cc1 [Diltiazem.HCl]
- systolic arterial blood pressure ([1]; 0.5 hr after administration, 30 mg/kg p.o.): 153.6 ± 5.4
- systolic arterial blood pressure ([1]; 1 hr after administration, 30 mg/kg p.o.): 141.8 ± 10.8
- systolic arterial blood pressure ([1]; 2 hr after administration, 30 mg/kg p.o.): 156.2 ± 8.8
- systolic arterial blood pressure ([1]; 3 hr after administration, 30 mg/kg p.o.): 170.5 ± 4.8
- systolic arterial blood pressure ([1]; 5 hr after administration, 30 mg/kg p.o.): 183.2 ± 2.8
- systolic arterial blood pressure ([1]; 8 hr after administration, 30 mg/kg p.o.): 189.3 ± 4.6
- systolic arterial blood pressure ([1]; 12 hr after administration, 30 mg/kg p.o.): 188.5 ± 2.0
- systolic arterial blood pressure ([1]; before administration, 30 mg/kg p.o.): 191.2 ± 5.4
